Laboratory results reported in patent US6469013B2, “Therapeutic compounds” (Parker Hughes Institute, priority 1998, dated 2002).
Like-named read-outs stand apart in the source and are kept apart here. Values belong to the compound of their own block, whether it stands above or below them.

How the values were obtained:
human JAK3 = target: T1, human JAK3 (Homo sapiens, UniProt P52333); assay: JAK3 immune complex kinase assay (JAK3 immunoprecipitated from KL2 EBV-transformed B cell line); format: biochemical
T1 sequence (P52333 1-1124): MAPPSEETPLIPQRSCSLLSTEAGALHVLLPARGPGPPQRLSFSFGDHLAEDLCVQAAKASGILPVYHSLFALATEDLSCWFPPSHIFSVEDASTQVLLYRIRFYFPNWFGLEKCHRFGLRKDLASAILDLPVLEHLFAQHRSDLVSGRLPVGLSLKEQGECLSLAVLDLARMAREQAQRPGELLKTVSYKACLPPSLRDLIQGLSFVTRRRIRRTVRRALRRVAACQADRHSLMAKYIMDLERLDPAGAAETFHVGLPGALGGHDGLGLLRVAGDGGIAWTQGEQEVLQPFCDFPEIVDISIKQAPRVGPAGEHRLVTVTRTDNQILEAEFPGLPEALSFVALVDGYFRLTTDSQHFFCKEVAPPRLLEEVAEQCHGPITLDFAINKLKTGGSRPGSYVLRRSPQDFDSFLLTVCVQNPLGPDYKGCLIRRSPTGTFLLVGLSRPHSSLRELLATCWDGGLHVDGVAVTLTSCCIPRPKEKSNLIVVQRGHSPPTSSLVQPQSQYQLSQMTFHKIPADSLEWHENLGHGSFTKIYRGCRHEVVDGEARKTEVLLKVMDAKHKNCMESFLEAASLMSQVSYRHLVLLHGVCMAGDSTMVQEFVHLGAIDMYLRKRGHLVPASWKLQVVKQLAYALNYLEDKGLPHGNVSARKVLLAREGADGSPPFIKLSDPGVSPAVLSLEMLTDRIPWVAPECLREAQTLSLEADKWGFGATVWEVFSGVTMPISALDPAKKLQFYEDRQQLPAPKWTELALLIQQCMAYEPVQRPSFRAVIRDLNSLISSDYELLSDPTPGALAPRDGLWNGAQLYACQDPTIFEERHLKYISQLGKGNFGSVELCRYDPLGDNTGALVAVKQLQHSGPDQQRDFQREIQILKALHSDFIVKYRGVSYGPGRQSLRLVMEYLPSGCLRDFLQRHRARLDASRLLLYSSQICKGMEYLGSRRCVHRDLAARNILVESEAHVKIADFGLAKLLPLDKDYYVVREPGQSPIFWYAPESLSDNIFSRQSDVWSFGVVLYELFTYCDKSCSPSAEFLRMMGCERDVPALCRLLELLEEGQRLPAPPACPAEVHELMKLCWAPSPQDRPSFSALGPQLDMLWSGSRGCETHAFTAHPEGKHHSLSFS
Procedure: (§1) In JAK3 immune complex kinase assays (17, 22), KL-2 EBV-transformed human lymphoblastoid B cells (native JAK3 kinase assays) or insect ovary cells (recombinant JAK3 kinase assays) were lysed with NP-40 lysis buffer (50 mM Tris, pH 8, 150 mM NaCl, 5 mM EDTA, 1% NP-40, 100 μM sodium orthovanadate, 100 μM sodium molybdate, 8 μg/ml aprotinin, 5 μg/ml leupeptin, and 500 μM PMSF) and centrifuged 10 min at 13000× g to remove insoluble material. Samples were immunoprecipitated with antisera prepared against JAK3. The antisera were diluted and immune complexes collected by incubation with 15 μl protein A Sepharose. After 4 washes with NP-40 lysis buffer, the protein A Sepharose beads were washed once in kinase buffer (20 mM MOPS, pH7, 10 mM MgCl2) and resuspended in the same buffer. Reactions were initiated by the addition of 25 μCi [γ^32P] ATP (5000 Ci/mMole) and unlabeled ATP to a final concentration of 5 μM. Reactions were terminated by boiling for 4 min in SDS sample buffer. Samples were run on 9.5% SDS polyacrylamide gels and labeled proteins were detected by autoradiography. Following electrophoresis, kinase gels were dried onto Whatman 3M filter paper and subjected to phosphorimaging on a Molecular Imager (Bio-Rad, Hercules, Calif.) as well as autoradiography on film. For each drug concentration, a kinase activity index (KA) was determined by comparing the kinase activity in phosphorimager units (PIU) to that of the baseline sample. In some experiments, cold kinase assays were performed, as described by (Uckun, F. M., et al., Clin. Can. Res. 4: 901-912, 1998).
We first used immune complex kinase assays to compare the effects of the synthesized dimethoxyquinazoline compounds on the enzymatic activity of human JAK3 immunoprecipitated from the KL2 EBV-transformed human lymphoblastoid B cell line.

recombinant murine JAK3 = target: T2, recombinant murine JAK3 (Mus musculus, UniProt Q62137); assay: Recombinant JAK3 immune complex kinase assay (baculovirus, Sf21); format: biochemical
T2 sequence (Q62137 1-1100): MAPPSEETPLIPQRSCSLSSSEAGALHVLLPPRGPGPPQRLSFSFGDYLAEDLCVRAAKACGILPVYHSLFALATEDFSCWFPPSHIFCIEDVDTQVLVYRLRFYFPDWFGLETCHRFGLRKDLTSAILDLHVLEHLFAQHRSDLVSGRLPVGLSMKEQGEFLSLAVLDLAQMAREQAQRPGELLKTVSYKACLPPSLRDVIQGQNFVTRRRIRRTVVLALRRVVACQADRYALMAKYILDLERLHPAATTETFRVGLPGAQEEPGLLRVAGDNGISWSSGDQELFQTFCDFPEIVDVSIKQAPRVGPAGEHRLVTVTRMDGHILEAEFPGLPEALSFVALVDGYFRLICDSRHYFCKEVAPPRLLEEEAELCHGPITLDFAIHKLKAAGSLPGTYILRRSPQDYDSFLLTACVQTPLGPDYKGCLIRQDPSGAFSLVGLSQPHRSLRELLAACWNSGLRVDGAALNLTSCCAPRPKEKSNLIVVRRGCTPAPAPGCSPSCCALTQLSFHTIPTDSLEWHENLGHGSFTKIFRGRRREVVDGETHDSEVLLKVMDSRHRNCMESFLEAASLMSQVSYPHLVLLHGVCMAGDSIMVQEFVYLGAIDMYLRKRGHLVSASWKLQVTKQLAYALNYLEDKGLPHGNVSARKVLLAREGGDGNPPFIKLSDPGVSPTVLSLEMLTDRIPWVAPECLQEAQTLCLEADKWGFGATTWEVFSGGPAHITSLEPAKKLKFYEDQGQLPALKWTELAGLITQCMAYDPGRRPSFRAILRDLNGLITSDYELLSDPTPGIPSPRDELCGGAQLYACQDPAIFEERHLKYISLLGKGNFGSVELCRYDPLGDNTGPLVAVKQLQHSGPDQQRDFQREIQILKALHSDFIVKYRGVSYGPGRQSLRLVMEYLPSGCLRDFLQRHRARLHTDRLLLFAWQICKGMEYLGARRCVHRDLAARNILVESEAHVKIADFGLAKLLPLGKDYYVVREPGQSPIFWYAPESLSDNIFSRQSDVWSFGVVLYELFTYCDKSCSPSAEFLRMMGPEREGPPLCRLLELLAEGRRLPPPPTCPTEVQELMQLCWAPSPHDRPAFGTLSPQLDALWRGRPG
Procedure: Sf21 (IPLB-SF21-AE) cells (Vassilev, A., et al., J. Biol. Chem. 274: 1646-1656, 1999) derived from the ovarian tissue of the fall armyworm Spodotera frugiperda, were obtained from Invitrogen (Carlsbad, Calif.) and maintained at 26-28° C. in Grace's insect cell medium supplemented with 10% FBS and 1.0% antibiotic/antimycotic (GIBCO-BRL). Stock cells were maintained in suspension at 0.2-1.6×10^6/ml in 600 ml total culture volume in 1 L Bellco spinner flasks at 60-90 rpm. Cell viability was maintained at 95-100% as determined by trypan blue dye exclusion. Sf21 cells were infected with a baculovirus expression vector for BTK, SYK, JAK1, JAK2, or JAK3. Cells were harvested, lysed (10 MM Tris pH7.6, 100 mM NaCl, 1% Nonidet P40, 10% glycerol, 50 mM NaF, 100 μM Na3VO4, 50 μg/ml phenylmethylsulfonyl fluoride, 10 μg/ml aprotonin, 10 μg/ml leupeptin), the kinases were immunoprecipitated from the lysates, and their enzymatic activity assayed, as reported (Vassilev, A., et al., J. Biol. Chem. 274: 1646-1656, 1999; Uckun, F. M., et al., Science. 22: 1096-1100, 1996; Goodman, P. A., et al., J. Biol. Chem. 273: 17742-48, 1998; Mahajan, S., et al., Mol. Cell. Biol. 15: 5304-11, 1995; and Uckun, F. M., et al., Science. 267: 886-91, 1995). The immunoprecipitates were subjected to Western blot analysis as previously described (Vassilev, A., et al., J. Biol. Chem. 274: 1646-1656, 1999; and Uckun, F. M., et al., Science. 22: 1096-1100, 1996).
as §1, with “Following electrophoresis, kinase gels were dried onto Whatman 3M filter paper and subjected to phosphorimaging on a Molecular Imager (Bio-Rad, Hercules, Calif.) as well as autoradiography on film.” left out, “In some experiments, cold kinase assays were performed, as described by (Uckun, F. M., et al., Clin. Can. Res. 4: 901-912, 1998).” left out

[1] = JAK3 kinase assay, KL2 cell-derived human JAK3, read-out: IC50

SMILES: COc1cc2ncnc(Nc3cccc(Br)c3)c2cc1OC [WHI-P79]
IC50 (human JAK3; [1]): > 300 µM

SMILES: COc1cc2ncnc(Nc3cc(Br)c(O)c(Br)c3)c2cc1OC [WHI-P97, 4-(3′,5′-dibromo-4′-hydroxyl-phenyl)-amino-6,7-dimethoxyquinazoline]
IC50 (human JAK3; [1]): 11 µM

SMILES: COc1cc2ncnc(Nc3ccccc3O)c2cc1OC [WHI-P132]
IC50 (human JAK3): > 300 µM
activity against JAK3 (in words) (human JAK3; biological assays): inactive against JAK3

SMILES: COc1cc2ncnc(Nc3ccccc3)c2cc1OC [WHI-P258, 4-(phenyl)-amino-6,7-dimethoxyquinazoline]
IC50 (human JAK3; [1]): > 300 µM

More lines, now with the values ahead:

IC50 (human JAK3; [1]): > 300 µM
melting point: 225 to 228 °C
SMILES: COc1cc2ncnc(Nc3ccc(C)c(Br)c3)c2cc1OC [WHI-P111]

IC50 (recombinant murine JAK3; recombinant murine JAK3): 128 µM
IC50 (recombinant murine JAK3; recombinant murine JAK3, converted from μg/ml): ~128 µM
SMILES: COc1cc2ncnc(Nc3ccc(O)c(Br)c3)c2cc1OC [WHI-P154, 4-(3′bromo4′-hydroxyl-phenyl)-amino-6,7-dimethoxyquinazoline]

melting point: 245 °C (dec.)
SMILES: COc1cc2ncnc(Nc3ccc(O)c(Cl)c3)c2cc1OC [WHI-P197]
